From patent US8455475B2 (Gruenenthal GmbH, priority 2009, dated 2013)

target: T1, rat B1R (bradykinin receptor 1) (Rattus norvegicus, UniProt P97583); assay: FLIPR Ca2+ assay (Fluo-4) on CHO K1 cells stably transfected with the B1R gene of the rat (rB1R cells): % inhibition at 10 μM / IC50, agonist Des-Arg9-bradykinin; format: cell-based; conditions: CHO-K1, rat B1R
T1 construct: expressed in transfected cells; host or cells: CHO K1 cells
T1 sequence (P97583 1-337): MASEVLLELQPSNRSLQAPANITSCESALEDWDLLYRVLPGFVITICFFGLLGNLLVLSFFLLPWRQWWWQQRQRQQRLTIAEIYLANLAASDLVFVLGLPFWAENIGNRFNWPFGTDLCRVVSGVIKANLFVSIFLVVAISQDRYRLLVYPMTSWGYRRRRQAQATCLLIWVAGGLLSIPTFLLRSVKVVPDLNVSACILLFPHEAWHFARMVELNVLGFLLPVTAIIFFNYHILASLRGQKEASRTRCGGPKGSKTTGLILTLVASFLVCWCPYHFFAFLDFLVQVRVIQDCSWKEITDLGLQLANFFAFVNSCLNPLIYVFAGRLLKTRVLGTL
How it was run: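 Loading with Fluo-4 occurs for 60 min at 37 °C, or alternatively in buffer A, before FLIPR measurement. Compounds are applied, incubated 10–20 min, and then the EC80 agonist is added. Antagonism appears as reduced peak Ca2+ signal relative to maximal inhibition.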

SMILES	inhibition at 10 µM [%]
O=C(c1ccc2c(c1)C(N(C(=O)c1ccccc1Cl)C1CC1)CC2)N1CCC2(CCN(Cc3ccc(F)c(F)c3)CC2)C1 (centres unmarked) [IND_CC-521, 2-Chloro-N-cyclopropyl-N-[6-[8-[(3,4-difluoro-phenyl)-methyl]-2,8-diazaspiro[4.5]decane-2-carbonyl]-2,3-dihydro-1H-inden-1-yl]-benzamide]	66
CN(C1CCc2ccc(C(=O)N3CCC4(CC3)CCN(c3ccncc3)CC4)cc21)S(=O)(=O)c1cc(Cl)ccc1Cl (centres unmarked) [IND_CC-344, 2,5-Dichloro-N-methyl-N-[6-(9-pyridin-4-yl-3,9-diazaspiro[5.5]undecane-3-carbonyl)-2,3-dihydro-1H-inden-1-yl]-benzenesulfonic acid amide]	99
O=C(NC1CCc2ccc(C(=O)N3CCC4(CC3)CCN(c3ccncc3)CC4)cc21)c1ccccc1F (centres unmarked) [IND_CC-399, 2-Fluoro-N-[6-(9-pyridin-4-yl-3,9-diazaspiro[5.5]undecane-3-carbonyl)-2,3-dihydro-1H-inden-1-yl]-benzamide]	101
O=C(c1ccc2c(c1)C(NS(=O)(=O)c1c(Cl)cccc1Cl)CC2)N1CCC2(CC1)CCN(c1ccncc1)C2 (centres unmarked) [IND_CC-323, 2,6-Dichloro-N-[6-(2-pyridin-4-yl-2,8-diazaspiro[4.5]decane-8-carbonyl)-2,3-dihydro-1H-inden-1-yl]-benzenesulfonic acid amide]	100
O=C(c1ccc2c(c1)C(NS(=O)(=O)c1cc(Cl)ccc1Cl)CC2)N1CCC2(CCN(c3ccncc3)CC2)C1 (centres unmarked) [IND_CC-357, 2,5-Dichloro-N-[6-(8-pyridin-4-yl-2,8-diazaspiro[4.5]decane-2-carbonyl)-2,3-dihydro-1H-inden-1-yl]-benzenesulfonic acid amide]	95
O=C(NC1CCc2ccc(C(=O)N3CCC4(CC3)CCN(c3ccncc3)C4)cc21)C1CCCC1 (centres unmarked) [IND_CC-393, N-[6-(2-Pyridin-4-yl-2,8-diazaspiro[4.5]decane-8-carbonyl)-2,3-dihydro-1H-inden-1-yl]-cyclopentanecarboxylic acid amide]	103
CN(C(=O)c1ccccc1Cl)C1CCc2ccc(C(=O)N3CCC4(CCN(Cc5cc(F)ccc5F)CC4)C3)cc21 (centres unmarked) [IND_CC-550, 2-Chloro-N-[6-[8-[(2,5-difluoro-phenyl)-methyl]-2,8-diazaspiro[4.5]decane-2-carbonyl]-2,3-dihydro-1H-inden-1-yl]-N-methyl-benzamide]	62
O=C(NC1CCc2ccc(C(=O)N3CCC4(CCN(c5ccncc5)CC4)C3)cc21)c1ccccc1F (centres unmarked) [IND_CC-402, 2-Fluoro-N-[6-(8-pyridin-4-yl-2,8-diazaspiro[4.5]decane-2-carbonyl)-2,3-dihydro-1H-inden-1-yl]-benzamide]	102
O=C(NC1CCc2ccc(C(=O)N3CCC4(CCN(c5ccncc5)CC4)C3)cc21)c1ccc(C(F)(F)F)cn1 (centres unmarked) [IND_CC-396, N-[6-(8-Pyridin-4-yl-2,8-diazaspiro[4.5]decane-2-carbonyl)-2,3-dihydro-1H-inden-1-yl]-5-(trifluoromethyl)-pyridine-2-carboxylic acid amide]	81
CN(C(=O)c1ccc(F)cc1C(F)(F)F)C1CCc2ccc(C(=O)N3CCC4(CC3)CCN(c3ccncc3)CC4)cc21 (centres unmarked) [IND_CC-380, 4-Fluoro-N-methyl-N-[6-(9-pyridin-4-yl-3,9-diazaspiro[5.5]undecane-3-carbonyl)-2,3-dihydro-1H-inden-1-yl]-2-(trifluoromethyl)-benzamide]	103
O=C(c1ccc2c(c1)C(N(C(=O)c1ccccc1Cl)C1CC1)CC2)N1CCC2(CCN(Cc3ccc(F)cc3F)CC2)C1 (centres unmarked) [IND_CC-523, 2-Chloro-N-cyclopropyl-N-[6-[8-[(2,4-difluoro-phenyl)-methyl]-2,8-diazaspiro[4.5]decane-2-carbonyl]-2,3-dihydro-1H-inden-1-yl]-benzamide]	68
CC1(C)Cc2ccc(C(=O)N3CCC4(CC3)CCN(c3ccncc3)CC4)cc2C1NS(=O)(=O)c1cccc(C(F)(F)F)c1 (centres unmarked) [IND_CC-341, N-[2,2-Dimethyl-6-(9-pyridin-4-yl-3,9-diazaspiro[5.5]undecane-3-carbonyl)-1,3-dihydro-inden-1-yl]-3-(trifluoromethyl)-benzenesulfonic acid amide]	87
CN(C1CCc2ccc(C(=O)N3CCC4(CC3)CCN(c3ccncc3)CC4)cc21)S(=O)(=O)Cc1cccc(C(F)(F)F)c1 (centres unmarked) [IND_CC-390, N-Methyl-N-[6-(9-pyridin-4-yl-3,9-diazaspiro[5.5]undecane-3-carbonyl)-2,3-dihydro-1H-inden-1-yl]-1-[3-(trifluoromethyl)phenyl]-methanesulfonic acid amide]	100

Now from value to compound:

inhibition at 10 µM [%]	SMILES
103	O=C(NC1CCc2ccc(C(=O)N3CCC4(CCN(C(=O)NCc5ccccc5)CC4)CC3)cc21)c1ccccc1Cl (centres unmarked) [IND_CC-706, N-Benzyl-3-[3-[(2-chloro-benzoyl)amino]-2,3-dihydro-1H-indene-5-carbonyl]-3,9-diazaspiro[5.5]undecane-9-carboxylic acid amide]
66	O=C(c1ccc2c(c1)C(N(C(=O)c1ccccc1Cl)C1CC1)CC2)N1CCC2(CCN(C(=O)c3ccc(F)cc3F)CC2)C1 (centres unmarked) [IND_CC-606, 2-Chloro-N-cyclopropyl-N-[6-[8-(2,4-difluoro-benzoyl)-2,8-diazaspiro[4.5]decane-2-carbonyl]-2,3-dihydro-1H-inden-1-yl]-benzamide]
107	O=C(NC1CCc2ccc(C(=O)N3CCC4(CCN(CCCc5ccc(F)cc5)CC4)C3)cc21)c1c(F)cccc1Cl (centres unmarked) [IND_CC-782, 2-Chloro-6-fluoro-N-[6-[8-[3-(4-fluorophenyl)-propyl]-2,8-diazaspiro[4.5]decane-2-carbonyl]-2,3-dihydro-1H-inden-1-yl]-benzamide]
68	CCn1cc(CN2CCC3(CC2)CCN(C(=O)c2ccc4c(c2)C(NC(=O)c2ccccc2Cl)CC4)C3)c(C)n1 (centres unmarked) [IND_CC-565, 2-Chloro-N-[6-[8-[(1-ethyl-3-methyl-1H-pyrazol-4-yl)-methyl]-2,8-diazaspiro[4.5]decane-2-carbonyl]-2,3-dihydro-1H-inden-1-yl]-benzamide]
50	CN(C(=O)c1ccccc1Cl)C1CCc2ccc(C(=O)N3CCC4(CCN(C(=O)c5cc(C(C)(C)C)nn5C)CC4)C3)cc21 (centres unmarked) [IND_CC-593, N-[6-[8-(5-tert-Butyl-2-methyl-2H-pyrazole-3-carbonyl)-2,8-diazaspiro[4.5]-decane-2-carbonyl]-2,3-dihydro-1H-inden-1-yl]-2-chloro-N-methyl-benzamide]
99	O=C(NC1CCc2ccc(C(=O)N3CCC4(CCN(CCCc5cccc(F)c5)CC4)C3)cc21)c1cccc(Cl)c1Cl (centres unmarked) [IND_CC-750, 2,3-Dichloro-N-[6-[8-[3-(3-fluorophenyl)-propyl]-2,8-diazaspiro[4.5]decane-2-carbonyl]-2,3-dihydro-1H-inden-1-yl]-benzamide]
104	O=C(NC1CCc2ccc(C(=O)N3CCC4(CCN(Cc5cccnc5)CC4)CC3)cc21)c1c(F)cccc1Cl (centres unmarked) [IND_CC-786, 2-Chloro-6-fluoro-N-[6-[9-(pyridin-3-yl-methyl)-3,9-diazaspiro[5.5]undecane-3-carbonyl]-2,3-dihydro-1H-inden-1-yl]-benzamide]
83	N#Cc1ccc(CN2CCC3(CC2)CCN(C(=O)c2ccc4c(c2)C(NC(=O)c2c(F)cccc2Cl)CC4)C3)cc1 (centres unmarked) [IND_CC-739, 2-Chloro-N-[6-[8-[(4-cyano-phenyl)-methyl]-2,8-diazaspiro[4.5]decane-2-carbonyl]-2,3-dihydro-1H-inden-1-yl]-6-fluoro-benzamide]
72	O=C(NC1CCc2ccc(C(=O)N3CCC4(CCN(Cc5ccc6ncccc6c5)CC4)CC3)cc21)c1cc(Cl)ccc1F (centres unmarked) [IND_CC-677, 5-Chloro-2-fluoro-N-[6-[9-(quinolin-6-yl-methyl)-3,9-diazaspiro[5.5]undecane-3-carbonyl]-2,3-dihydro-1H-inden-1-yl]-benzamide]
78	N#Cc1ccc(CN2CCC3(CC2)CCN(C(=O)c2ccc4c(c2)C(NC(=O)c2cc(C(F)(F)F)ccc2Cl)CC4)CC3)cc1 (centres unmarked) [IND_CC-666, 2-Chloro-N-[6-[9-[(4-cyano-phenyl)-methyl]-3,9-diazaspiro[5.5]undecane-3-carbonyl]-2,3-dihydro-1H-inden-1-yl]-5-(trifluoromethyl)-benzamide]
76	Cc1cccc(Cl)c1C(=O)NC1CCc2ccc(C(=O)N3CCC4(CCN(Cc5cnn(C)c5C)CC4)C3)cc21 (centres unmarked) [IND_CC-729, 2-Chloro-N-[6-[8-[(1,5-dimethyl-1H-pyrazol-4-yl)-methyl]-2,8-diazaspiro-[4.5]decane-2-carbonyl]-2,3-dihydro-1H-inden-1-yl]-6-methyl-benzamide]
95	Cc1cccc(Cl)c1C(=O)NC1CCc2ccc(C(=O)N3CCC4(CCN(Cc5ccc(F)cc5Cl)CC4)C3)cc21 (centres unmarked) [IND_CC-734, 2-Chloro-N-[6-[8-[(2-chloro-4-fluoro-phenyl)-methyl]-2,8-diazaspiro-[4.5]decane-2-carbonyl]-2,3-dihydro-1H-inden-1-yl]-6-methyl-benzamide]
85	N#Cc1cccc(CN2CCC3(CC2)CCN(C(=O)c2ccc4c(c2)C(NC(=O)c2cc(C(F)(F)F)ccc2Cl)CC4)CC3)c1 (centres unmarked) [IND_CC-667, 2-Chloro-N-[6-[9-[(3-cyano-phenyl)-methyl]-3,9-diazaspiro[5.5]undecane-3-carbonyl]-2,3-dihydro-1H-inden-1-yl]-5-(trifluoromethyl)-benzamide]
